Laboratory results from US8796256B2 (Janssen Pharmaceutica NV, priority 2010, dated 2014).

Target: T1, ERR1 (also known as ERR-α or ERR-1) (Homo sapiens, UniProt P11474)
T1 sequence (P11474 193-421 limits assumed): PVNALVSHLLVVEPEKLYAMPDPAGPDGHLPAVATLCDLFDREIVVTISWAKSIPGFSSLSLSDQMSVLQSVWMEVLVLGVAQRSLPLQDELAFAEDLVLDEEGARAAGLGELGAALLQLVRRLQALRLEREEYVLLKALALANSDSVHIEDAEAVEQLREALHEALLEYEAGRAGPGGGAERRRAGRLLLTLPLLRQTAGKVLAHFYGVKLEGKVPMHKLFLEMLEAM
Experiment: TR-FRET assay (disruption of co-activator peptide binding to ERR1 LBD)
Assay type: biochemical
Settings: 6 nM 6His-ERR1LBD, 6 nM GST-SRC-2 peptide; average of 3 independent experiments
Outline: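 Homogeneous TR-FRET measuring displacement of GST-hSRC2 co-activator peptide (6 nM) from His-tagged ERR1 LBD (6 nM), detected with α-GST Eu cryptate (30 nM) and α-His-XL665 (7.5 nM). Buffer 25 mM Tris pH 8, 2.5 mM Hepes, 20 mM KCl, 1 mM DTT, 0.05 mg/mL delipidated BSA; equilibration 4-18 h at 25° C. Hyperbolic dose-response fit, mean of 3 experiments.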

| Compound | EC50 [nM] |
| --- | --- |
| CN1CCC(C(=O)O)(N2C(=O)S/C(=C\c3ccc4c(cnn4Cc4ccc(Cl)cc4C(F)(F)F)c3)C2=O)CC1 [Compound 220, 4-[(5Z)-5-({1-[4-Chloro-2-(trifluoromethyl)benzyl]-1H-indazol-5-yl}methylidene)-2,4-dioxo-1,3-thiazolidin-3-yl]-1-methylpiperidine-4-carboxylic acid] | 74 |
| O=C(O)[C@H](CO)N1C(=O)S/C(=C\c2ccc3c(cnn3Cc3ccc(Cl)cc3C(F)(F)F)c2)C1=O [Compound 221, (2S)-2-[(5Z)-5-({1-[4-Chloro-2-(trifluoromethyl)benzyl]-1H-indazol-5-yl}methylidene)-2,4-dioxo-1,3-thiazolidin-3-yl]-3-hydroxypropanoic acid] | 61 |
| O=C(O)[C@@H](CO)N1C(=O)S/C(=C\c2ccc3c(cnn3Cc3ccc(Cl)cc3C(F)(F)F)c2)C1=O [Compound 222, (2R)-2-[(5Z)-5-({1-[4-Chloro-2-(trifluoromethyl)benzyl]-1H-indazol-5-yl}methylidene)-2,4-dioxo-1,3-thiazolidin-3-yl]-3-hydroxypropanoic acid] | 58 |
| Cn1cnc(CC(C(=O)O)N2C(=O)S/C(=C\c3ccc4c(cnn4Cc4ccc(Cl)cc4C(F)(F)F)c3)C2=O)c1 (centres unmarked) [Compound 223, 2-[(5Z)-5-({1-[4-Chloro-2-(trifluoromethyl)benzyl]-1H-indazol-5-yl}methylidene)-2,4-dioxo-1,3-thiazolidin-3-yl]-3-(1-methyl-1H-imidazol-4-yl)propanoicacid] | 55 |
| O=C(O)C(C1CCNCC1)N1C(=O)S/C(=C\c2ccc3c(cnn3Cc3ccc(Cl)cc3C(F)(F)F)c2)C1=O (centres unmarked) [Compound 224, [(5Z)-5-({1-[4-Chloro-2-(trifluoromethyl)benzyl]-1H-indazol-5-yl}methylidene)-2,4-dioxo-1,3-thiazolidin-3-yl](piperidin-4-yl)acetic acid] | 22 |
| O=C(O)C(Cc1cccnc1)N1C(=O)S/C(=C\c2ccc3c(cnn3Cc3ccc(Cl)cc3C(F)(F)F)c2)C1=O (centres unmarked) [Compound 225, 2-[(5Z)-5-({1-[4-Chloro-2-(trifluoromethyl)benzyl]-1H-indazol-5-yl}methylidene)-2,4-dioxo-1,3-thiazolidin-3-yl]-3-pyridin-3-ylpropanoic acid] | 32 |
| COC(=O)C1(N2C(=O)S/C(=C\c3ccc4c(cnn4Cc4ccc(Cl)cc4C(F)(F)F)c3)C2=O)CCOCC1 [Compound 226, Methyl 4-[(5Z)-5-({1-[4-chloro-2-(trifluoromethyl)benzyl]-1H-indazol-5-yl}methylidene)-2,4-dioxo-1,3-thiazolidin-3-yl]tetrahydro-2H-pyran-4-carboxylate] | 30 |
| O=C1S/C(=C\c2ccc3c(cnn3Cc3ccc(Cl)cc3C(F)(F)F)c2)C(=O)N1C1(C(=O)O)CCOCC1 [Compound 227, 4-[(5Z)-5-({1-[4-Chloro-2-(trifluoromethyl)benzyl]-1H-indazol-5-yl}methylidene)-2,4-dioxo-1,3-thiazolidin-3-yl]etrahydro-2H-pyran-4-carboxylic acid] | 53 |
| O=C(O)C(CC1CCNCC1)N1C(=O)S/C(=C\c2ccc3c(cnn3Cc3ccc(Cl)cc3C(F)(F)F)c2)C1=O (centres unmarked) [Compound 228, 2-[(5Z)-5-({1-[4-Chloro-2-(trifluoromethyl)benzyl]-1H-indazol-5-yl}methylidene)-2,4-dioxo-1,3-thiazolidin-3-yl]-3-piperidin-4-ylpropanoic acid] | 49 |
| O=C(O)C(Cc1c[nH]cn1)N1C(=O)S/C(=C\c2ccc3c(cnn3Cc3ccc(Cl)cc3C(F)(F)F)c2)C1=O (centres unmarked) [Compound 229, 2-[(5Z)-5-({1-[4-Chloro-2-(trifluoromethyl)benzyl]-1H-indazol-5-yl}methylidene)-2,4-dioxo-1,3-thiazolidin-3-yl]-3-(1H-imidazol-4-yl)propanoic acid] | 76 |
| O=C1S/C(=C\c2ccc3c(cnn3Cc3ccc(Cl)cc3C(F)(F)F)c2)C(=O)N1C1(C(=O)O)CCNCC1 [Compound 230, 4-[(5Z)-5-({1-[4-Chloro-2-(trifluoromethyl)benzyl]-1H-indazol-5-yl}methylidene)-2,4-dioxo-1,3-thiazolidin-3-yl]piperidine-4-carboxylic acid] | 16 |
| Nc1nc(CN2C(=O)S/C(=C\c3ccc4c(cnn4Cc4ccc(Cl)cc4C(F)(F)F)c3)C2=O)c[nH]1 [Compound 231, (5Z)-3-[(2-Amino-1H-imidazol-4-yl)methyl]-5-({1-[4-chloro-2-(trifluoromethyl)benzyl]-1H-indazol-5-yl}methylidene)-1,3-thiazolidine-2,4-dione] | 46 |
| COC(=O)C1(N2C(=O)S/C(=C\c3ccc4c(cnn4Cc4ccc(Cl)cc4C(F)(F)F)c3)C2=O)CCCC1 [Compound 232, Methyl 1-[(5Z)-5-({1-[4-chloro-2-(trifluoromethyl)benzyl]-1H-indazol-5-yl}methylidene)-2,4-dioxo-1,3-thiazolidin-3-yl]cyclopentanecarboxylate] | 107 |
| O=C1S/C(=C\c2ccc3c(cnn3Cc3ccc(Cl)cc3C(F)(F)F)c2)C(=O)N1C1(C(=O)O)CCCC1 [Compound 233, 1-[(5Z)-5-({1-[4-Chloro-2-(trifluoromethyl)benzyl]-1H-indazol-5-yl}methylidene)-2,4-dioxo-1,3-thiazolidin-3-yl]cyclopentanecarboxylic acid] | 57 |
| COC(=O)C1(N2C(=O)S/C(=C\c3ccc4c(cnn4Cc4ccc(Cl)cc4C(F)(F)F)c3)C2=O)CCC1 [Compound 234, Methyl 1-[(5Z)-5-({1-[4-chloro-2-(trifluoromethyl)benzyl]-1H-indazol-5-yl}methylidene)-2,4-dioxo-1,3-thiazolidin-3-yl]cyclobutanecarboxylate] | 99 |
| O=C1S/C(=C\c2ccc3c(cnn3Cc3ccc(Cl)cc3C(F)(F)F)c2)C(=O)N1C1(C(=O)O)CCC1 [Compound 235, 1-[(5Z)-5-({1-[4-Chloro-2-(trifluoromethyl)benzyl]-1H-indazol-5-yl}methylidene)-2,4-dioxo-1,3-thiazolidin-3-yl]cyclobutanecarboxylic acid] | 45 |
| CC(C)(C)OC(=O)COCCN1C(=O)S/C(=C\c2ccc3c(cnn3Cc3ccc(Cl)cc3C(F)(F)F)c2)C1=O [Compound 236, tert-Butyl {2-[(5Z)-5-({1-[4-chloro-2-(trifluoromethyl)benzyl]-1H-indazol-5-yl}methylidene)-2,4-dioxo-1,3-thiazolidin-3-yl]ethoxy}acetate] | 111 |
| O=C(O)COCCN1C(=O)S/C(=C\c2ccc3c(cnn3Cc3ccc(Cl)cc3C(F)(F)F)c2)C1=O [Compound 237, {2-[(5Z)-5-({1-[4-Chloro-2-(trifluoromethyl)benzyl]-1H-indazol-5-yl}methylidene)-2,4-dioxo-1,3-thiazolidin-3-yl]ethoxy}acetic acid] | 98 |
| COC(=O)CN1C(=O)S/C(=C\c2ccc3c(ccn3Cc3ccc(C(F)(F)F)cc3C(F)(F)F)c2)C1=O [Compound 238, Methyl {(5Z)-5-[(1-{[2,4-bis(trifluoromethyl)phenyl]methyl}-1H-indol-5-yl)methylidene]-2,4-dioxo-1,3-thiazolidin-3-yl}acetate] | 1800 |
| CN(C)CCCN1C(=O)S/C(=C\c2ccc3c(ccn3Cc3ccc(C(F)(F)F)cc3C(F)(F)F)c2)C1=O [Compound 239, (5Z)-5-[(1-{[2,4-Bis(trifluoromethyl)phenyl]methyl}-1H-indol-5-yl)methylidene]-3-[3-(dimethylamino)-propyl]-1,3-thiazolidine-2,4-dione] | 100 |
| CN(C)CCN1C(=O)S/C(=C\c2ccc3c(ccn3Cc3ccc(C(F)(F)F)cc3C(F)(F)F)c2)C1=O [Compound 240, (5Z)-5-[(1-{[2,4-Bis(trifluoromethyl)-phenyl]methyl}-1H-indol-5-yl)methylidene]-3-[2-(dimethylamino)ethyl]-1,3-thiazolidine-2,4-dione] | 70 |
| O=C(CN1C(=O)S/C(=C\c2ccc3c(ccn3Cc3ccc(C(F)(F)F)cc3C(F)(F)F)c2)C1=O)N1CCOCC1 [Compound 241, (5Z)-5-[(1-{[2,4-Bis(trifluoromethyl)phenyl]methyl}-1H-indol-5-yl)methylidene]-3-(2-morpholin-4-yl-2-oxoethyl)-1,3-thiazolidine-2,4-dione] | 100 |
| O=C1S/C(=C\c2ccc3c(ccn3Cc3ccc(C(F)(F)F)cc3C(F)(F)F)c2)C(=O)N1CCO [Compound 242, (5Z)-5-[(1-{[2,4-Bis(trifluoromethyl)phenyl]methyl}-1H-indol-5-yl)methylidene]-3-(2-hydroxyethyl)-1,3-thiazolidine-2,4-dione] | 100 |
| CN(C)CCN1C(=O)S/C(=C\c2ccc3c(ccn3Cc3ccc(Cl)cc3C(F)(F)F)c2)C1=O [Compound 243, (5Z)-5-[(1-{[4-Chloro-2-(trifluoromethyl)phenyl]methyl}-1H-indol-5-yl)methylidene]-3-[2-(dimethylamino)ethyl]-1,3-thiazolidine-2,4-dione] | 50 |
| CN(C)CCCN1C(=O)S/C(=C\c2ccc3c(ccn3Cc3ccc(Cl)cc3C(F)(F)F)c2)C1=O [Compound 244, (5Z)-5-[(1-{[4-Chloro-2-(trifluoromethyl)phenyl]methyl}-1H-indol-5-yl)methylidene]-3-[3-(dimethylamino)-propyl]-1,3-thiazolidine-2,4-dione] | 50 |
| CN1CCN(CCCN2C(=O)S/C(=C\c3ccc4c(ccn4Cc4ccc(Cl)cc4C(F)(F)F)c3)C2=O)CC1 [Compound 245, (5Z)-5-[(1-{[4-Chloro-2-(trifluoromethyl)phenyl]methyl}-1H-indol-5-yl)methylidene]-3-[3-(4-methylpiperazin-1-yl)propyl]-1,3-thiazolidine-2,4-dione] | 50 |
